Assay results as given in PMC12064607 (Clinical Pharmacokinetics, 2025).
Read-outs that look alike come from different tables or passages of the source.

Columns and labels:
[1] = human, in vivo
[2] = test system: BetaCoV/Belgium/GHB-03021/2020; conditions: cited from earlier work
WA1 = test system: WA1; design: method as in Pitts et al[4]; conditions: A549-ACE2-TMPRSS, Nucleoprotein ELISA, ref Pitts et al[4]; cited from earlier work
Delta = conditions: A549-ACE2-TMPRSS, Nucleoprotein ELISA, ref Pitts et al[4]; cited from earlier work
Omicron = conditions: A549-ACE2-TMPRSS, Nucleoprotein ELISA, ref Pitts et al[4]; cited from earlier work
Omicron/BA.2 = test system: Omicron/BA.2; design: method as in Takashita et al[5]; conditions: Vero E6, Focus reduction, ref Takashita et al[5]; cited from earlier work
clinical = conditions: human, in vivo
plasma protein = conditions: cited from earlier work
[3] = plasma samples; cited from earlier work
[4] = test system: nCoV-2019BetaCoV/Wuhan/WIV04/2019; conditions: cited from earlier work
[5] = test system: BetaCoV/France/IDF0571/2020; conditions: cited from earlier work
[6] = human, in vivo; cited from earlier work

N#C[C@@]1(c2ccc3c(N)ncnn23)O[C@H](CO)[C@@H](O)[C@H]1O [GS-441524]
Age effect on V, bootstrap median [1]: –1.18
Age effect on V, final model mean [1]: –1.15
V/fm, bootstrap median [1]: 429 L
V/fm, final model mean [1]: 429 L
eGFR effect on CL, bootstrap median [1]: 1.23
eGFR effect on CL, final model mean [1]: 1.12
EC50 [2]: 510 nM
EC50 (WA1): 5600 nM
EC50 (Delta): 3260 nM
EC50 (Omicron): 3150 nM
EC50 (Omicron/BA.2): 2850 nM
clearance (clinical; CL/fm, bootstrap median): 267 mL/min
clearance (clinical; CL/fm, final model mean): 265 mL/min
protein binding (plasma protein): 2%
stable at room temperature [3]: 48 h

CCC(CC)COC(=O)[C@H](C)N[P@](=O)(OC[C@H]1O[C@@](C#N)(c2ccc3c(N)ncnn23)[C@H](O)[C@@H]1O)Oc1ccccc1 [Remdesivir, reference compound]
V, bootstrap median [1]: 111 L
EC50 [4]: 770 nM
EC90 [4]: 1760 nM
EC50 [5]: 990 nM
EC50 [2]: 48 nM
EC50 (Delta): 70 nM
EC50 (Omicron): 42 nM
clearance (clinical; CL, bootstrap median): 1670 mL/min
clearance (clinical; iv, CL, final model mean): 1600 mL/min
clearance [6]: 207 L/h
protein binding (plasma protein; human): 97%
